Experimental findings from patent US20230054194A1, “Methods of Treating Cancer” (ARIAGEN, INC., priority 2018, published 2023) are described below.

Format in all cases: in vivo, mouse (C57BL/6)
Test [1] concerns B16F10. The experiment in a line: B16F10 subcutaneous syngeneic melanoma mouse model (Study 10), tumor growth inhibition. As to conditions: for Tumor size / TGI(%): B16F10 model, study end day Day 19; for Tumor size: Mean ± SEM, in mm³. How it is done: (§1) In this example, the in vivo anti-tumor efficacy of ARI-001, ARI-002, ARI-003, and ARI-143 and their combinations with an anti-PD-1 antibody was evaluated using a panel of twelve subcutaneous syngeneic mouse tumor models.
(§2) Eleven subcutaneous syngeneic mouse tumor models were generated by innoculating female BALB/C or C57BL/6 mice with cancer cells at their right lower or right front flank followed by randomization as detailed in Table 4 below.
(§3) A solution of a rat monoclonal anti-mouse PD-1 antibody (isotype IgG2a, κ) at a concentration of 6.61 mg/ml was obtained from BioXcell (InVivoMAb anti-mouse PD-1 (CD279), Clone RMP1-14, Cat #BE0146)) and store at 4° C. The antibody solution was diluted with PBS to obtain a 1 mg/ml dosing solution.
(§4) ARI-001, ARI-002, and ARI-003 powder was stored at −20° C. The powder of each compound was dissolved in DMSO to obtain dosing solutions at 106.7, 80, and 53.33 mg/ml for administration to mice at 160, 120, and 80 mg/kg, respectively. ARI-143 was similarly prepared.
(§5) Twelve studies using the twelve subcutaneous syngeneic mouse tumor models were performed. In each study, 80 mice were enrolled and randomly allocated to eight different study groups, with 10 mice in each study group. The mean tumor size at randomization was approximately 80-120 mm^3 (around 100 mm^3). Randomization was performed based on “Matched distribution” randomization method (StudyDirector™ software, version 3.1.399.19). […] All the drugs and vehicle controls were injected to the mice intraperitoneally.
(§6) After tumor cell inoculation, the animals were checked daily for morbidity and mortality. At the time of routine monitoring, the animals were checked for any effects of tumor growth and treatments on behavior such as mobility, food and water consumption, body weight gain/loss (body weights were measured twice or three times per week after randomization), and any other abnormalities. Mortality and observed clinical signs were recorded for individual animals. Tumor volumes were measured twice or three times weekly after randomization in two dimensions using a caliper, and the volume was expressed in mm^3 using the formula: […]
(§7) where V is tumor volume, L is tumor length (the longest tumor dimension) and W is tumor width (the longest tumor dimension perpendicular to L).
(§8) The study was terminated when the mean tumor volume (MTV) in the vehicle group reached a value of 2,000 mm^3. Tumor growth inhibition (TGI) is an indication of antitumor activity, and expressed as: […]
(§9) where T and C are the MTV (or weight) of the treated and control groups, respectively, on a given day. Statistical analysis of the difference in MTV among the groups was conducted using the data collected on the day when the MTV of the vehicle group reached the humane endpoints, so that TGI could be derived for all or most mice enrolled in the study.
(§10) Statistical analysis of differences in MTV among the groups was conducted by Independent-Samples T Test using the data collected. All data were analyzed with SPSS (Statistical Product and Service Solutions) version 18.0 (IBM, Armonk, N.Y., U.S.). P-values were rounded to three decimal places, with the exception that raw P-values less than 0.001 were stated as P<0.001. All tests were two-sided. P<0.05 was considered to be statistically significant.
FIG. 69 is a graph showing the mean tumor volume on different study days in the study groups as indicated according to Study 10 (B16F10). The study end day was Day 19.

In test [2] the test system is MC38. In words: MC38 subcutaneous syngeneic colon cancer mouse model (Study 1), tumor growth inhibition. As to conditions: for TGI(%) / Tumor size (Mean ± SEM): MC38 model, i.p., ARI compounds 160 mg/kg QD × 17 doses, Anti-PD-1 10 BIW × 5 doses, study end day Day 26. How it is done:
as §1, §2, §3, §4, §5, §6, §7, §8, §9, §10
FIG. 60 is a graph showing the mean tumor volume on different study days in the study groups as indicated according to Study 1 (MC38). The study end day was Day 26.

Test [3] has as its system LL/2. The experiment in a line: LL/2 subcutaneous syngeneic lung cancer mouse model (Study 6), tumor growth inhibition. As to conditions: for Tumor size / TGI(%): LL/2 model, study end day Day 32; for Tumor size: Mean ± SEM, in mm³; for anti-tumor potency of anti-PD-1 antibody combined with the compound, compared to the antibody alone or the vehicle: LL/2 syngeneic lung cancer model. As to the method:
as §1, §2, §3, §4, §5, §6, §7, §8, §9, §10
FIG. 65 is a graph showing the mean tumor volume on different study days in the study groups as indicated according to Study 6 (LL/2). The study end day was Day 32.

The mark [4] stands for this setting: MC38 syngeneic colon cancer model.

`CCC(=O)c1csc(C(=O)c2c[nH]c3ccccc23)n1` [ARI-002]: the Tumor size stood at 1994.41 ± 180.33 in test [1] and 837.75 ± 117.58 in test [3]. Also, the results for the “TGI(%)” value in test [1], in test [2] and in test [3] were 32%, 45% and 62%, respectively. Further, the “anti-tumor potency of anti-PD-1 antibody combined with the compound, compared to the antibody alone or the vehicle” value in test [1] (B16F10 syngeneic melanoma model), in test [2] (setting [4]) and in test [3] was “statistically significant increase” in each case. In test [2], the “Tumor size (Mean ± SEM)” value is 1419.94 ± 141.48 mm^3.
In the case of `COC(=O)c1csc(C(=O)c2c[nH]c3ccccc23)n1` [ARI-001], in test [1], the Tumor size is reported as 2089.97 ± 201.33 and the “TGI(%)” value worked out at 29%. Moreover, in test [2], the “TGI(%)” value was determined as 37% and the “Tumor size (Mean ± SEM)” value is reported as 1624.33 ± 148.56 mm^3. Moreover, in test [2] (setting [4]), the “anti-tumor potency of anti-PD-1 antibody combined with the compound, compared to the antibody alone or the vehicle” value is listed as “statistically significant increase” and the “anti-tumor potency of the compound combined with anti-PD-1 antibody, compared to being used alone” value is “statistically significant increase”. Further, in test [3], the Tumor size worked out at 881.1 ± 93.59; the “TGI(%)” value was determined as 60%; the “anti-tumor potency of anti-PD-1 antibody combined with the compound, compared to the antibody alone or the vehicle” value was “statistically significant increase”.
